Literature values as cited in patent US11553715B2, “Synthesis and formulation of lignin derived compounds as treatment of plant diseases” (University of Kentucky Research Foundation, priority 2019, dated 2023).

SMILES: COc1cc(C=O)ccc1O [Vanillin]
- antimicrobial concentration as a food preservative (bacteria): 1.5 mg/mL
- antimicrobial concentration as a food preservative (yeast): 0.76 mg/mL
